Measured values taken from patent publication US20030032612A1 (priority 1997, published 2003).
Where “and” joins values, the source holds several entries; their conditions need not be identical. Equal entries are not always repeated.

Key:
Assay type in all cases: cell-based, E. coli
AG 102 mar mutant = test: Gradient plate assay, MIC of antibiotics in AG 102 with plasmids; conditions: Escherichia coli
Method: To establish further the inhibitory efficacy of antisense marA sequences, KMN23 (the same DNA vector described above, containing both the marR and the marA genes cloned in the antisense direction) was also expressed in the presence of various antibiotics (tetracycline (Tet), chloramphenicol (Cml), ampicillin (Amp) and rifampicin (Rif). The effect of KMN23 was assessed by measuring cell growth inhibition by the gradient plate method as described in Example 9. The results are shown in TABLE 3.
(§1) Bacterial susceptibility to tetracycline hydrochloride, chloramphenicol, ampicillin, kanamycin, rifampin, nalidixic acid and norfloxacin was assayed by the gradient plate method. (Microbiology: Including Immunology and Molecular Genetics (3rd ed.)(Davis et al. eds.(1980)J. P. Lippincott Co., Philadelphia, Pa.).

[1] = system: ML308-225-C2 (Mar mutant); test: Augmentation of bactericidal activity of norfloxacin by oligonucleotides, colony counts
ML308-C2 = test: MIC on antibiotic gradient plates in Mar mutant ML308-C2; conditions: Escherichia coli, read-out: MIC of norfloxacin
Method: Antibiotic resistant mutants of ML308-225 (Rahman et al. (1991) Antisense Res. Dev. 1:319-327) were grown and maintained at 30° C. in LB broth. These mutants were selected by spreading washed overnight cultures onto a LB agar plate containing chloramphenicol (5 μg/ml, Sigma, St. Louis, Mo.) and incubated at 30° C for 48-72 hours. Single colonies appearing after 48 hours were picked for further study.
One mutant showing increased minimal inhibitory concentrations (hereinafter referred to as MIC) to tetracycline, chloramphenicol, ampicillin, nalidixic acid, and norfloxacin was selected and designated ML308-C2. Sequencing confirmed a C® T substitution in amino acid 117 of marR, which results in a truncated MarR protein. […] Northern analysis using a marA DNA probe confirmed that ML308-C2 over expresses marA and was a Mar mutant (unpublished data).
as §1

Structure (SMILES) | MIC (AG 102 mar mutant) [µg/mL] | activity at 0.5 µg/mL ([1]; Escherichia coli, norfloxacin 0.5 µg/mL alone, 1 hour, Table 5, read-out: % OF CONTROL (untreated cells)) [%] | % OF CONTROL CELLS ([1]; norfloxacin 0.5 μg/ml alone, oligo 1284 0 μM, duplicate experiments) | MIC (ML308-C2) [µg/mL]
CC1(C)S[C@@H]2[C@H](NC(=O)[C@H](N)c3ccccc3)C(=O)N2[C@H]1C(=O)O [Amp, ampicillin] | 17.7 | – | – | –
O=C(N[C@H](CO)[C@H](O)c1ccc([N+](=O)[O-])cc1)C(Cl)Cl [Cml, chloramphenicol] | 34.2 | – | – | –
CCn1cc(C(=O)O)c(=O)c2cc(F)c(N3CCNCC3)cc21 [Norfloxacin, norfloxacin] | – | 65 | 71% and 57% | 0.5
CO[C@H]1/C=C/O[C@@]2(C)Oc3c(C)c(O)c4c(O)c(c(/C=N/N5CCN(C)CC5)c(O)c4c3C2=O)NC(=O)/C(C)=C\C=C\[C@H](C)[C@H](O)[C@@H](C)[C@@H](O)[C@@H](C)[C@H](OC(C)=O)[C@@H]1C [Rif, rifampicin] | 8.8 | – | – | –
CN(C)[C@@H]1C(O)=C(C(N)=O)C(=O)[C@@]2(O)C(O)=C3C(=O)c4c(O)cccc4[C@@](C)(O)[C@H]3C[C@@H]12 [Tet, tetracycline] | 12.5 | – | – | –
